{
  "source": "patent US11572590B2",
  "about": "“Methods for evaluating tumor cell spheroids using 3D microfluidic cell culture device” (Dana-Farber Cancer Institute, Inc., priority 2017, dated 2023)",
  "test_in_all_cases": "SelectScreen Kinase Profiling, single point inhibition and IC50 for off-target kinases",
  "type_in_all_cases": "biochemical",
  "key": {"off-target kinases [1]": {"biological_target": "off-target kinases (Homo sapiens, UniProt P07948)", "sequence (P07948 whole entry)": "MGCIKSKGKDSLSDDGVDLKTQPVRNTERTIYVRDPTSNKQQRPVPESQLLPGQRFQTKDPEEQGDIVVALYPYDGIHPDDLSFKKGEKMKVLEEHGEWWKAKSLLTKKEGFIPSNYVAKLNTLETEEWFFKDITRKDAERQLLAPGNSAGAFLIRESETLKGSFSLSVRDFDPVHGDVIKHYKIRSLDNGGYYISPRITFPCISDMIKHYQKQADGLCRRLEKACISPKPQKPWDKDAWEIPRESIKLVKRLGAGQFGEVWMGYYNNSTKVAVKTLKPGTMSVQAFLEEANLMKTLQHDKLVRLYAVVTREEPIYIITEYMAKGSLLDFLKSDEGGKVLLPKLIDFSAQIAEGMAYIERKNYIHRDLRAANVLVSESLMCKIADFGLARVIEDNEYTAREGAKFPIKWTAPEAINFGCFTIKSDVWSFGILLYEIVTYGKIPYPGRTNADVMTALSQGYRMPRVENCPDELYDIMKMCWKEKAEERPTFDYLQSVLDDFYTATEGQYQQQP", "details": "LYN A, ATP Km app, ZLYTE"}, "off-target kinases [2]": {"biological_target": "T1, off-target kinases (Homo sapiens, UniProt Q9HBY8)", "T1 sequence (Q9HBY8 1-367)": "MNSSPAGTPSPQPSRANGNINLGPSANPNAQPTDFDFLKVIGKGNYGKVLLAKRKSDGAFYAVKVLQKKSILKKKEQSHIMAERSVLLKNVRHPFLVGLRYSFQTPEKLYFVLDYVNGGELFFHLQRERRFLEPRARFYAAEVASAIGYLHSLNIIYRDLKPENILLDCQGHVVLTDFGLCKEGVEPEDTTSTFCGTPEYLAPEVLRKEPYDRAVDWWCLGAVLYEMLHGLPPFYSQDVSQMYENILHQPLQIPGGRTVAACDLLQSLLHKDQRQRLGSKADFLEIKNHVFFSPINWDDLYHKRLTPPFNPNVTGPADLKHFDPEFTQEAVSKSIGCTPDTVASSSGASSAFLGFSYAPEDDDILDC", "details": "SGK2, ZLYTE, ATP Km app"}, "off-target kinases [3]": {"biological_target": "T2, off-target kinases (Homo sapiens, UniProt Q32MK0)", "T2 sequence (Q32MK0 1-819)": "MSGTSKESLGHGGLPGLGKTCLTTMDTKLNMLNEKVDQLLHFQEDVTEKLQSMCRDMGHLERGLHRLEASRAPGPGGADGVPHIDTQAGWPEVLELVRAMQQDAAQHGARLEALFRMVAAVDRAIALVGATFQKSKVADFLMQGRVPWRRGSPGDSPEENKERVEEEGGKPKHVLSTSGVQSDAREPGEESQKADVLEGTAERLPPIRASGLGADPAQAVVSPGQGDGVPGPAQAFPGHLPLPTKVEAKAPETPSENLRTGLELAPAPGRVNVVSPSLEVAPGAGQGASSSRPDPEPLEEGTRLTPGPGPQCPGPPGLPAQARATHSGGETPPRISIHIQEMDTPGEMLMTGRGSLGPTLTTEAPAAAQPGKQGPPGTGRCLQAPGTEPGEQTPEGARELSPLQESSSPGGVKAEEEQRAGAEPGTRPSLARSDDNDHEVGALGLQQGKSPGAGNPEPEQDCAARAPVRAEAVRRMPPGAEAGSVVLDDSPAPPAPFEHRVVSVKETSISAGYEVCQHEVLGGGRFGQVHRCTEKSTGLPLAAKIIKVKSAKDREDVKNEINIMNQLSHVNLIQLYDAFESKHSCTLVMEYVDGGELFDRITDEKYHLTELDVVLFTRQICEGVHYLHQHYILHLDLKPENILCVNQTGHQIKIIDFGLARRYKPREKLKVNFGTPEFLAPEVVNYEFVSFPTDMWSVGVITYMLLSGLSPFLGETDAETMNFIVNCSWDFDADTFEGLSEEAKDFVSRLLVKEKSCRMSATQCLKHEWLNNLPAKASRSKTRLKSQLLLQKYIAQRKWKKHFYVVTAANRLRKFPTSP", "details": "MLCK (MLCK2), LanthaScreen Binding"}, "off-target kinases [4]": {"biological_target": "off-target kinases (Homo sapiens, UniProt Q9Y5S2)", "sequence (Q9Y5S2 whole entry)": "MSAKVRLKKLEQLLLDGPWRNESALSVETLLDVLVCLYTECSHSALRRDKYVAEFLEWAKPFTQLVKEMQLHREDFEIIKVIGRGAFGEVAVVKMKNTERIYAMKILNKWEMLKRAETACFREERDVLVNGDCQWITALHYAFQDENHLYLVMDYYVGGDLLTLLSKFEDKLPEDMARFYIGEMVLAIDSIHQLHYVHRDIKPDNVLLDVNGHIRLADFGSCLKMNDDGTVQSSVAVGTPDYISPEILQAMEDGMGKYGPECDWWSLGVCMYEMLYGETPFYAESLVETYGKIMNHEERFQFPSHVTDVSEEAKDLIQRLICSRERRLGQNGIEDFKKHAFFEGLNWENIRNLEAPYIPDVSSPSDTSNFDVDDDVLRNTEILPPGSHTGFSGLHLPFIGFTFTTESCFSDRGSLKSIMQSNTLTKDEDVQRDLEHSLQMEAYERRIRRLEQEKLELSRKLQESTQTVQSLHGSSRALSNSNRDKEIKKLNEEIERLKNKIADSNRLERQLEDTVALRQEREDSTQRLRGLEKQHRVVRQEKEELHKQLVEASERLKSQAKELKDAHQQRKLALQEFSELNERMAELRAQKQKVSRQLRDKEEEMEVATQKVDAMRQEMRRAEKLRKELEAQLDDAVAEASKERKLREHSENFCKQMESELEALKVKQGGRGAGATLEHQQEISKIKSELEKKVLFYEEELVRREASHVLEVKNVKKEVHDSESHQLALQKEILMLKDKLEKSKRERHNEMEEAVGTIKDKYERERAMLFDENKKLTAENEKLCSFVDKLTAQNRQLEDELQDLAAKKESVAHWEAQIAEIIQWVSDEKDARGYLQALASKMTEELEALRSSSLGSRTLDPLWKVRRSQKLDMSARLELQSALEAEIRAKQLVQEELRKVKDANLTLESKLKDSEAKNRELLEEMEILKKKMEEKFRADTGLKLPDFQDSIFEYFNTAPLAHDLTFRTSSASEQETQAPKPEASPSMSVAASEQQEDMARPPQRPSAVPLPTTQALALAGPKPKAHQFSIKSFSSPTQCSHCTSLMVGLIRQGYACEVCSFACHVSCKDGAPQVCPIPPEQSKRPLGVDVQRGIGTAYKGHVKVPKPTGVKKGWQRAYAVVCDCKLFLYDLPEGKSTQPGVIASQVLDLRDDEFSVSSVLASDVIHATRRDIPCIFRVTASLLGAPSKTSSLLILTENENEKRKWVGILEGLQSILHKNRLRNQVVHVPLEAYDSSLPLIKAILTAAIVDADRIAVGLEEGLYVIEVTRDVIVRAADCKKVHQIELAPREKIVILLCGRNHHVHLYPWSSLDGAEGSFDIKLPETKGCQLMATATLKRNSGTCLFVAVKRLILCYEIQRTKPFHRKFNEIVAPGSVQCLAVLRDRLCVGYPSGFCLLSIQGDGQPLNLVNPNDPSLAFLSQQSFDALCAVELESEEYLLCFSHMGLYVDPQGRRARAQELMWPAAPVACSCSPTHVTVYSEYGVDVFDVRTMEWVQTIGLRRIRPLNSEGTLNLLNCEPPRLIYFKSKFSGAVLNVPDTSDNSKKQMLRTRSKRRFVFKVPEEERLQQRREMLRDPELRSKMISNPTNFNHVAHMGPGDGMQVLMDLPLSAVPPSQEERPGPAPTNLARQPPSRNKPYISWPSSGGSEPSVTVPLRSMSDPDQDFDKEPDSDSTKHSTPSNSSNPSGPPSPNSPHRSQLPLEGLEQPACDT", "details": "CDC42 BPB (MRCKB), ZLYTE, ATP Km app"}, "off-target kinases [5]": {"biological_target": "off-target kinases (Homo sapiens, UniProt Q15375)", "sequence (Q15375 28-998)": "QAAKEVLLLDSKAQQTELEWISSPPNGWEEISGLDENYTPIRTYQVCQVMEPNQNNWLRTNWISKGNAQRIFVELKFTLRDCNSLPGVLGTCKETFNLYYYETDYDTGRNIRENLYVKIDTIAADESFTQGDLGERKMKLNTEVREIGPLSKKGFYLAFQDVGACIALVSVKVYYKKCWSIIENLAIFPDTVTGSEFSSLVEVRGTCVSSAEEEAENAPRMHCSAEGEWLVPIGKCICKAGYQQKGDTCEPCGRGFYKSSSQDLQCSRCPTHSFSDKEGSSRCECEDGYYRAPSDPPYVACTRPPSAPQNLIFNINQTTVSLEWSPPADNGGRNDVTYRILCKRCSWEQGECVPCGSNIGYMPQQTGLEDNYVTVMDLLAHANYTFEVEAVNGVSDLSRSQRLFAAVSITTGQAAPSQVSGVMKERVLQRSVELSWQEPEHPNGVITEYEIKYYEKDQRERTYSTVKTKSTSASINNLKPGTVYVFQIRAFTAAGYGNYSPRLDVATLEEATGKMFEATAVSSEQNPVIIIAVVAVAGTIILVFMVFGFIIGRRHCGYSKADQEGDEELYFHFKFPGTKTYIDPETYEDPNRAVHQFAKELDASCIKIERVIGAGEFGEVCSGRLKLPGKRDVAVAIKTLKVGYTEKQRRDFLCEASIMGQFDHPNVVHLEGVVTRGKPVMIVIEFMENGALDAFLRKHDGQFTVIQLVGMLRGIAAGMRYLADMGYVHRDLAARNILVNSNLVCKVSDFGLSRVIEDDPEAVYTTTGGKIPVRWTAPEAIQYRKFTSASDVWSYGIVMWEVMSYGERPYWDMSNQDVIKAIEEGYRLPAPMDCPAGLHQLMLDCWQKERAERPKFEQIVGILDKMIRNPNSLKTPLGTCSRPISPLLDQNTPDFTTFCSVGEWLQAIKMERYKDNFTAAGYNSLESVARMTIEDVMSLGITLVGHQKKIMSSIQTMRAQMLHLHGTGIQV", "details": "EPHA7, LanthaScreen Binding"}, "off-target kinases [6]": {"biological_target": "off-target kinases (Homo sapiens, UniProt Q02763, Y1108F)", "sequence (Q02763 23-1124 Y1108F)": "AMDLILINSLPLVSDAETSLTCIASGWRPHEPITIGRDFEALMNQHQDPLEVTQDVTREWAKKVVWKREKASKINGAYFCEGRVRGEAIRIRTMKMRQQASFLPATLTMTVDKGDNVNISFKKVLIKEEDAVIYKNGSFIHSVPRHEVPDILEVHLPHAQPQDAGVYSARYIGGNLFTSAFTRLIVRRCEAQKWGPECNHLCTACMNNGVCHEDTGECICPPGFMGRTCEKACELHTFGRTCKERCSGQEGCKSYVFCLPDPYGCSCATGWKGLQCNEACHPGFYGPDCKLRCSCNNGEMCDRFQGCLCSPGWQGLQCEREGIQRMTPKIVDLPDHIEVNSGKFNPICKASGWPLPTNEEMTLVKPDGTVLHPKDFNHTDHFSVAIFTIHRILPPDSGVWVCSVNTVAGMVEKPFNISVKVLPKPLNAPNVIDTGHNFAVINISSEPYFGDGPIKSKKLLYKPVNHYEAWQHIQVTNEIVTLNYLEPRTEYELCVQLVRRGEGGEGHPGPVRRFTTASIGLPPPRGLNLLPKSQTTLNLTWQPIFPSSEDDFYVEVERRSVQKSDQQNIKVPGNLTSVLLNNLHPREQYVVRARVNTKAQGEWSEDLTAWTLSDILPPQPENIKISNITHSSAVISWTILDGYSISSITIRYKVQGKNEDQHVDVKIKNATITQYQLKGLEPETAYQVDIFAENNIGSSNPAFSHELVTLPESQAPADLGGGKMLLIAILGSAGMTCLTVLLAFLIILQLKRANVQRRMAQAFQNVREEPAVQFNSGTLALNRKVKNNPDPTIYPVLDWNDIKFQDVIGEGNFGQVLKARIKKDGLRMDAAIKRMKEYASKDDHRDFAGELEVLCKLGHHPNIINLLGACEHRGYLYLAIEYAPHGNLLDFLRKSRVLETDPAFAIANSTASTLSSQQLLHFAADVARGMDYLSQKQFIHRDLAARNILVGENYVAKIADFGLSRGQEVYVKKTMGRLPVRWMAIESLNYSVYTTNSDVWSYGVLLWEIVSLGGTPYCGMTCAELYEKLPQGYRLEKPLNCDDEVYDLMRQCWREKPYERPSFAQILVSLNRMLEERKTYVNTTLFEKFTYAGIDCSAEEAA", "details": "TEK (TIE2) Y1108F, LanthaScreen Binding"}},
  "note": "Like-named read-outs stand apart in the source and are kept apart here.",
  "data": [
    {"compound": "N#Cc1cc(-c2ncnc(Nc3ccc(N4CCN(C5COC5)CC4)cc3)n2)ccc1OC1CCOCC1", "note": "[Compound 1, 5-(4-((4-(4-(oxetan-3-yl)piperazin-1-yl)phenyl)amino)-1,3,5-triazin-2-yl)-2-((tetrahydro-2H-pyran-4-yl)oxy)benzonitrile]", "values": [
      {"measurement": "inhibition", "setting": "off-target kinases [1]; read-out: % Inhibition 1", "result": 48, "unit": "%"},
      {"measurement": "inhibition", "setting": "off-target kinases [1]; read-out: % Inhibition 2", "result": 48, "unit": "%"},
      {"measurement": "inhibition", "setting": "off-target kinases [1]; read-out: % Inhibition Avg", "result": 48, "unit": "%"},
      {"measurement": "inhibition", "setting": "off-target kinases [2]; read-out: % Inhibition 1", "result": 7, "unit": "%"},
      {"measurement": "inhibition", "setting": "off-target kinases [2]; read-out: % Inhibition 2", "result": 12, "unit": "%"},
      {"measurement": "inhibition", "setting": "off-target kinases [2]; read-out: % Inhibition Avg", "result": 10, "unit": "%"},
      {"measurement": "inhibition", "setting": "off-target kinases [3]; read-out: % Inhibition 1", "result": 92, "unit": "%"},
      {"measurement": "inhibition", "setting": "off-target kinases [3]; read-out: % Inhibition 2", "result": 93, "unit": "%"},
      {"measurement": "inhibition", "setting": "off-target kinases [3]; read-out: % Inhibition Avg", "result": 93, "unit": "%"},
      {"measurement": "inhibition", "setting": "off-target kinases [4]; read-out: % Inhibition 1", "result": 6, "unit": "%"},
      {"measurement": "inhibition", "setting": "off-target kinases [4]; read-out: % Inhibition 2", "result": 13, "unit": "%"},
      {"measurement": "inhibition", "setting": "off-target kinases [4]; read-out: % Inhibition Avg", "result": 10, "unit": "%"},
      {"measurement": "inhibition", "setting": "off-target kinases [5]; read-out: % Inhibition 1", "result": 10, "unit": "%"},
      {"measurement": "inhibition", "setting": "off-target kinases [5]; read-out: % Inhibition 2", "result": 12, "unit": "%"},
      {"measurement": "inhibition", "setting": "off-target kinases [5]; read-out: % Inhibition Avg", "result": 11, "unit": "%"},
      {"measurement": "inhibition", "setting": "off-target kinases [6]; read-out: % Inhibition 1", "result": 53, "unit": "%"},
      {"measurement": "inhibition", "setting": "off-target kinases [6]; read-out: % Inhibition 2", "result": 52, "unit": "%"},
      {"measurement": "inhibition", "setting": "off-target kinases [6]; read-out: % Inhibition Avg", "result": 53, "unit": "%"}
    ]}
  ]
}
